According to article PMC10674160, “Synthesis and Preclinical Evaluation of Radiolabeled [^103Ru]BOLD-100” (Pharmaceutics, 2023):

Assay: Tissue distribution in CT26 allograft bearing Balb/c mice (ICP-MS for 3a, gamma counting for 3b)
Assay type: in vivo
Description: UV/Vis spectra were recorded on a Hitachi U-2000 Dual Beam spectrophotometer. Sample activities were measured on an ISOMED 2010 dose calibrator. For centrifugation during synthesis, a Fisherbrand^TM Mini-Centrifuge from Fisher Scientific was used. Radioactive organ samples were measured on Perkin Elmer Wizard^2 gamma counter. Non-radioactive organ samples were prepared, and the ruthenium content was quantified with ICP-MS. The exact procedure including instrument information can be found in the Supplementary Materials.
For the evaluation of organ distribution, CT26 cells (5 × 10^5 in serum-free medium) were injected subcutaneously into the right flank of Balb/c mice. Animals were controlled for distress development every day and tumor size was assessed regularly using caliper measurements. CT26 cells were inoculated 10 days prior to drug application. Tumor volume was calculated using the formula: (length × width^2); the tumors reached a size of about 500 mm^3. Animals were treated once intravenously (i.v.) via tail-vein injection with 3a or 3b at a dose of 30 mg/kg (dissolved in 0.9% NaCl, 0.6 mg/100 µL/20 g mouse) and a specific activity of 0.64–1.36 MBq/mg for compound 3b. The mice were anesthetized and sacrificed by cervical fracture 4, 24, 48 and 72 h p.i., with n ≥ 2 (3a) and n ≥ 3 (3b) for each time point. Samples of tumor, liver, kidney, muscle, heart, lung, spleen, pancreas, stomach, colon, small intestine, brain, bone, and blood were collected from each mouse. After clotting at RT, serum was isolated from the collected blood samples by centrifugation at 3000 rpm for 10 min twice and stored together with the collected tissue samples at −20 °C. Finally, the ruthenium content was quantified by ICP-MS in the case of the non-radioactive BOLD-100 (3a) and via gamma counting for [^103Ru]BOLD-100 (3b).
An Agilent 7800 ICP-MS (Agilent Technologies, Tokyo, Japan) was being employed, which was equipped with an Agilent SPS 4 autosampler (Agilent Technologies, Tokyo, Japan) and a MicroMist nebulizer at a sample uptake rate of approx. 0.2 mL/min. The Agilent MassHunter software package (Workstation Software, Version C.01.04, 2018) was used for data evaluation. The instrumental parameters […]
Reference source not found..
Ta ble S1: Instrumental parameters for the ICP-MS measurements […]
Spray chamber Scott double-pass
Spraying chamber temp. 2°C
Nebulizer gas 1.06 L min−1
Auxiliary gas 0.90 L min−1
The instrumental limit of quantification (LOQ) was determined at the start of the measurement by […]
LOQ = blank average + 10*STD
Blank corrections were performed for all the samples. Robustness was ensured by tuning the ICP-MS on a daily basis, by using an internal standard (115In) and measuring calibration standards for each […]
Ultrapure water (18.2 MΩ cm, ELGA Water purification system, Purelab Ultra MK 2, UK or 18.2 MΩ cm, Milli-Q Advantage, Darmstadt, Germany), HNO3 (≥69%, Rotipuran Supra, Carl Roth, Karlsruhe, Germany) and H2O2 (30%, Suprapur, Merck, Darmstadt, Germany) were used for all dilutions for ICP-MS measurements. The Ru standard solution was purchased from Labkings (Hilversum, The Netherlands).
For the digestion, approx. 25–50 mg of each organ sample were weighed into PFA-tubes, with 2 mL HNO3 and 100 µL H2O2 being added. The solutions were then placed on a hot plate and heated up for 6 hours using a temperature program with a maximum temperature of 200 °C. After cooling down, the liquids were transferred directly to 15 mL tubes with the remaining solution being removed from the PFA tubes by washing twice with 4 mL ultrapure water, resulting in a final volume of about 10 mL. By writing down the total weight of the resulting liquid, the dilution factor could be calculated.

[1] = Tumor, 24 h p.i., 30 mg/kg i.v.

[Cl][Ru]([Cl])([Cl])[Cl].[Na+].c1ccc2[nH]ncc2c1.c1ccc2[nH]ncc2c1 [3b, [^103Ru]sodium trans-[tetrachloridobis(indazole)ruthenate(III)]]
tumor/organ ratio Blood cells (Blood cells, 4 h): 0.4 ± 0.1 | %ID/g tissue Blood cells (Blood cells, 4 h p.i., 30 mg/kg i.v.): 11.98 ± 2.26 %ID/g tissue | %ID/g tissue Blood cells (Blood cells, 24 h p.i., 30 mg/kg i.v.): 3.41 ± 0.97 %ID/g tissue | %ID/g tissue Blood cells (Blood cells, 48 h p.i., 30 mg/kg i.v.): 2.94 ± 1.32 %ID/g tissue | %ID/g tissue Blood cells (Blood cells, 72 h p.i., 30 mg/kg i.v.): 2.19 ± 0.96 %ID/g tissue | tumor/organ ratio Bones (4 h): 3.4 ± 0.5 | %ID/g tissue Bones (4 h p.i., 30 mg/kg i.v.): 1.34 ± 0.30 %ID/g tissue | tumor/organ ratio Bones (24 h): 5.4 ± 0.6 | %ID/g tissue Bones (24 h p.i., 30 mg/kg i.v.): 1.19 ± 0.29 %ID/g tissue | tumor/organ ratio Bones (48 h): 7.0 ± 0.8 | %ID/g tissue Bones (48 h p.i., 30 mg/kg i.v.): 0.90 ± 0.24 %ID/g tissue | tumor/organ ratio Bones (72 h): 4.9 ± 1.7 | %ID/g tissue Bones (72 h p.i., 30 mg/kg i.v.): 1.00 ± 0.15 %ID/g tissue | tumor/organ ratio Brain (4 h): 10.7 ± 3.3 | %ID/g tissue Brain (4 h p.i., 30 mg/kg i.v.): 0.46 ± 0.20 %ID/g tissue | tumor/organ ratio Brain (24 h): 51.9 ± 4.4 | %ID/g tissue Brain (24 h p.i., 30 mg/kg i.v.): 0.12 ± 0.02 %ID/g tissue | tumor/organ ratio Brain (48 h): 53.3 ± 14.3 | %ID/g tissue Brain (48 h p.i., 30 mg/kg i.v.): 0.13 ± 0.05 %ID/g tissue | tumor/organ ratio Brain (72 h): 54.3 ± 15.1 | %ID/g tissue Brain (72 h p.i., 30 mg/kg i.v.): 0.09 ± 0.05 %ID/g tissue | %ID/g tissue Colon (4 h p.i., 30 mg/kg i.v.): 3.89 ± 0.96 %ID/g tissue | %ID/g tissue Colon (24 h p.i., 30 mg/kg i.v.): 1.88 ± 0.37 %ID/g tissue | %ID/g tissue Colon (48 h p.i., 30 mg/kg i.v.): 2.34 ± 0.72 %ID/g tissue | %ID/g tissue Colon (72 h p.i., 30 mg/kg i.v.): 2.19 ± 0.77 %ID/g tissue | tumor/organ ratio Fat (4 h): 5.1 ± 2.1 | tumor/organ ratio Fat (24 h): 10.3 ± 2.1 | tumor/organ ratio Fat (48 h): 13.3 ± 5.0 | tumor/organ ratio Fat (72 h): 8.6 ± 3.5 | tumor/organ ratio Heart (4 h): 0.8 ± 0.2 | %ID/g tissue Heart (4 h p.i., 30 mg/kg i.v.): 5.93 ± 1.10 %ID/g tissue | tumor/organ ratio Heart (24 h): 2.0 ± 0.2 | %ID/g tissue Heart (24 h p.i., 30 mg/kg i.v.): 3.24 ± 0.73 %ID/g tissue | tumor/organ ratio Heart (48 h): 2.1 ± 0.2 | %ID/g tissue Heart (48 h p.i., 30 mg/kg i.v.): 2.98 ± 0.41 %ID/g tissue | tumor/organ ratio Heart (72 h): 1.5 ± 0.4 | %ID/g tissue Heart (72 h p.i., 30 mg/kg i.v.): 3.12 ± 0.84 %ID/g tissue | tumor/organ ratio Kidneys (4 h): 0.4 ± 0.1 | %ID/g tissue Kidneys (4 h p.i., 30 mg/kg i.v.): 12.98 ± 2.87 %ID/g tissue | tumor/organ ratio Kidneys (24 h): 0.5 ± 0.1 | %ID/g tissue Kidneys (24 h p.i., 30 mg/kg i.v.): 12.55 ± 0.74 %ID/g tissue | tumor/organ ratio Kidneys (48 h): 0.5 ± 0.1 | %ID/g tissue Kidneys (48 h p.i., 30 mg/kg i.v.): 11.79 ± 2.66 %ID/g tissue | %ID/g tissue Kidneys (72 h p.i., 30 mg/kg i.v.): 13.14 ± 5.56 %ID/g tissue | tumor/organ ratio Liver (4 h): 0.2 ± 0.2 | %ID/g tissue Liver (4 h p.i., 30 mg/kg i.v.): 24.41 ± 3.17 %ID/g tissue | tumor/organ ratio Liver (24 h): 0.5 ± 0.1 | %ID/g tissue Liver (24 h p.i., 30 mg/kg i.v.): 13.83 ± 3.38 %ID/g tissue | tumor/organ ratio Liver (48 h): 0.4 ± 0.1 | %ID/g tissue Liver (48 h p.i., 30 mg/kg i.v.): 14.54 ± 2.69 %ID/g tissue | tumor/organ ratio Liver (72 h): 0.4 ± 0.1 | %ID/g tissue Liver (72 h p.i., 30 mg/kg i.v.): 12.26 ± 2.85 %ID/g tissue | %ID/g tissue Lung (4 h p.i., 30 mg/kg i.v.): 9.77 ± 1.75 %ID/g tissue | %ID/g tissue Lung (24 h p.i., 30 mg/kg i.v.): 5.89 ± 3.04 %ID/g tissue | %ID/g tissue Lung (48 h p.i., 30 mg/kg i.v.): 5.08 ± 1.93 %ID/g tissue | %ID/g tissue Lung (72 h p.i., 30 mg/kg i.v.): 4.47 ± 2.10 %ID/g tissue | %ID/g tissue Muscle (4 h p.i., 30 mg/kg i.v.): 1.05 ± 0.14 %ID/g tissue | %ID/g tissue Muscle (24 h p.i., 30 mg/kg i.v.): 0.57 ± 0.19 %ID/g tissue | %ID/g tissue Muscle (48 h p.i., 30 mg/kg i.v.): 0.60 ± 0.16 %ID/g tissue | %ID/g tissue Muscle (72 h p.i., 30 mg/kg i.v.): 0.65 ± 0.17 %ID/g tissue | %ID/g tissue Pancreas (4 h p.i., 30 mg/kg i.v.): 3.75 ± 1.07 %ID/g tissue | %ID/g tissue Pancreas (24 h p.i., 30 mg/kg i.v.): 1.74 ± 0.39 %ID/g tissue | %ID/g tissue Pancreas (48 h p.i., 30 mg/kg i.v.): 2.50 ± 1.33 %ID/g tissue | %ID/g tissue Pancreas (72 h p.i., 30 mg/kg i.v.): 2.01 ± 0.75 %ID/g tissue | tumor/organ ratio Serum (4 h): 0.2 ± 0.0 | %ID/g tissue Serum (4 h p.i., 30 mg/kg i.v.): 28.02 ± 4.87 %ID/g tissue | tumor/organ ratio Serum (24 h): 0.8 ± 0.1 | %ID/g tissue Serum (24 h p.i., 30 mg/kg i.v.): 8.57 ± 3.37 %ID/g tissue | tumor/organ ratio Serum (48 h): 1.3 ± 0.4 | %ID/g tissue Serum (48 h p.i., 30 mg/kg i.v.): 5.31 ± 2.78 %ID/g tissue | tumor/organ ratio Serum (72 h): 1.4 ± 0.3 | %ID/g tissue Serum (72 h p.i., 30 mg/kg i.v.): 3.63 ± 1.78 %ID/g tissue | %ID/g tissue Small intestine (4 h p.i., 30 mg/kg i.v.): 5.49 ± 1.12 %ID/g tissue | %ID/g tissue Small intestine (24 h p.i., 30 mg/kg i.v.): 2.49 ± 0.76 %ID/g tissue | %ID/g tissue Small intestine (48 h p.i., 30 mg/kg i.v.): 2.54 ± 0.95 %ID/g tissue | %ID/g tissue Small intestine (72 h p.i., 30 mg/kg i.v.): 1.92 ± 0.47 %ID/g tissue | %ID/g tissue Spleen (4 h p.i., 30 mg/kg i.v.): 4.63 ± 0.61 %ID/g tissue | %ID/g tissue Spleen (24 h p.i., 30 mg/kg i.v.): 3.92 ± 0.66 %ID/g tissue | %ID/g tissue Spleen (48 h p.i., 30 mg/kg i.v.): 6.01 ± 2.98 %ID/g tissue | %ID/g tissue Spleen (72 h p.i., 30 mg/kg i.v.): 5.08 ± 1.56 %ID/g tissue | %ID/g tissue Stomach (4 h p.i., 30 mg/kg i.v.): 2.88 ± 0.82 %ID/g tissue | %ID/g tissue Stomach (24 h p.i., 30 mg/kg i.v.): 1.34 ± 0.22 %ID/g tissue | %ID/g tissue Stomach (48 h p.i., 30 mg/kg i.v.): 1.60 ± 0.36 %ID/g tissue | %ID/g tissue Stomach (72 h p.i., 30 mg/kg i.v.): 1.69 ± 0.64 %ID/g tissue | %ID/g tissue Tumor (Tumor, 4 h p.i., 30 mg/kg i.v.): 4.49 ± 1.03 %ID/g tissue | %ID/g tissue Tumor [1]: 6.39 ± 1.44 %ID/g tissue | tumor uptake (highest level) [1]: 6.4 %ID/g | %ID/g tissue Tumor (Tumor, 48 h p.i., 30 mg/kg i.v.): 6.19 ± 1.26 %ID/g tissue | %ID/g tissue Tumor (Tumor, 72 h p.i., 30 mg/kg i.v.): 4.77 ± 1.68 %ID/g tissue
